In ChEMBL document CHEMBL3885861, “Open TG-GATES”:

Species on record: Rattus norvegicus
Test: Open TG-GATES - Regimen: Single
Type: toxicity, organism-based, Sprague-Dawley
Set-up: regimen Single, gender Male, age 6 weeks
Conditions: in vivo, po, 0 mg/kg, route gavage, dose level Control; for APTT / Bas / Eos / Fbg / Hb / Ht / Lym / MCH / MCHC / MCV / Mono / Neu / PT / Plat / RBC / Ret / WBC: tissue Blood; for KIDNEY_L / KIDNEY_R / KIDNEY_TOTAL: tissue Kidney; for LIVER: tissue Liver; for A/G / ALP / ALT / AST / BUN / CRE / Ca / Cl / DBIL / GLC / IP / K / LDH / Na / PL / RALB / TBIL / TC / TG / TP / gamma-GTP: tissue Plasma

Nc1ccc(Cc2ccc(N)cc2)cc1
TERMINAL_BW (9 h): 204.2 g | APTT (9 h): 14.5 s | Bas (9 h): 0% | Eos (9 h): 0.8% | Fbg (9 h): 277 mg/dL | Hb (9 h): 12.7 g/dL | Ht (9 h): 37.3% | Lym (9 h): 73.4% | MCH (9 h): 21.1 pg | MCHC (9 h): 34.2% | MCV (9 h): 61.8 fL | Mono (9 h): 1.8% | Neu (9 h): 23.6% | PT (9 h): 11.7 s | Plat (9 h): 137.5 x10_4/uL | RBC (9 h): 603.8 x10_4/ul | Ret (9 h): 8% | WBC (9 h): 65.4 x10_2/uL | KIDNEY_L (9 h): 0.9 g | KIDNEY_R (9 h): 0.9 g | KIDNEY_TOTAL (9 h): 1.7 g | LIVER (9 h): 7.8 g | A/G (9 h): 0.8 | ALP (9 h): 1332.6 IU/L | ALT (9 h): 27.4 IU/L | AST (9 h): 64.4 IU/L | BUN (9 h): 8.8 mg/dL | CRE (9 h): 0.2 mg/dL | Ca (9 h): 10.5 mg/dL | Cl (9 h): 106.4 meq/L | DBIL (9 h): 0.018 mg/dL | GLC (9 h): 174.2 mg/dL | IP (9 h): 10.5 mg/dL | K (9 h): 4 meq/L | LDH (9 h): 58.2 IU/L | Na (9 h): 143 meq/L | PL (9 h): 129.6 mg/dL | RALB (9 h): 2.5 g/dL | TBIL (9 h): 0.064 mg/dL | TC (9 h): 77.8 mg/dL | TG (9 h): 42.4 mg/dL | TP (9 h): 5.6 g/dL | gamma-GTP (9 h): 1 IU/L | TERMINAL_BW (24 h): 219.7 g | APTT (24 h): 12.6 s | Bas (24 h): 0% | Eos (24 h): 1% | Fbg (24 h): 258.8 mg/dL | Hb (24 h): 13.1 g/dL | Ht (24 h): 37.9% | Lym (24 h): 73.2% | MCH (24 h): 21.2 pg | MCHC (24 h): 34.5% | MCV (24 h): 61.6 fL | Mono (24 h): 1.8% | Neu (24 h): 23.2% | PT (24 h): 11.4 s | Plat (24 h): 146.9 x10_4/uL | RBC (24 h): 616.8 x10_4/ul | Ret (24 h): 6.8% | WBC (24 h): 88.9 x10_2/uL | KIDNEY_L (24 h): 0.9 g | KIDNEY_R (24 h): 0.9 g | KIDNEY_TOTAL (24 h): 1.9 g | LIVER (24 h): 9.5 g | A/G (24 h): 0.9 | ALP (24 h): 1942.2 IU/L | ALT (24 h): 38.6 IU/L | AST (24 h): 74 IU/L | BUN (24 h): 14.6 mg/dL | CRE (24 h): 0.2 mg/dL | Ca (24 h): 10.9 mg/dL | Cl (24 h): 106.4 meq/L | DBIL (24 h): 0.02 mg/dL | GLC (24 h): 167 mg/dL | IP (24 h): 7.7 mg/dL | K (24 h): 3.9 meq/L | LDH (24 h): 49.2 IU/L | Na (24 h): 143.2 meq/L | PL (24 h): 135.4 mg/dL | RALB (24 h): 2.6 g/dL | TBIL (24 h): 0.044 mg/dL | TC (24 h): 72 mg/dL | TG (24 h): 89.6 mg/dL | TP (24 h): 5.5 g/dL | gamma-GTP (24 h): 1 IU/L
